Tests used:
Format in all cases: cell-based
c-Myc protein = molecular target: T1, c-Myc protein (Homo sapiens, UniProt P01106); assay: c-Myc protein degradation in HL60 cells (Western blot); conditions: for remaining activity at 0.01 µM: HL-60, compound at 10 nM, 24 h, gray value relative to Ctrl (DMSO), read-out: Remaining amount of c-Myc protein (@10 nM/Ctrl)
T1 construct: degradation of myc and GSPT1 proteins in HL60 cells; endogenous in cells; host or cells: HL60
Description: (§1) HL60 cells in the exponential growth phase were digested and plated into a 6-well plate at 1×10^6 cells per well. The cell culture medium was RPMI-1640 (meilunbio, MA0215). After a day of adherent growth of the cells, the compound of the present invention was added as a test drug for culture, and proteins were extracted 24 h later (Ctrl meant adding only DMSO at the same volume).
(§2) In the 6-well plate, the culture medium RPMI-1640 (meilunbio, MA0215) was removed, and the cells were washed once with PBS, digested with trypsin, and centrifuged and collected separately into 1.5 mL centrifuge tubes. 100 μL of RIPA lysis buffer (containing 100 μM PMSF) was added to each tube, mixed thoroughly, allowed to stand on ice for 30 min and then centrifuged at 12000 rpm at 4° C. using a centrifuge for 20 min. The supernatant was used for Western blotting experiments. The sample can be stored at −80° C.
(§3) By using the BCA protein concentration determination kit (from Thermo Fisher, Cat. No. 23225), the BSA standard determination solution and the samples to be tested (the samples to be tested can be diluted and then tested) were prepared according to the table A below. Samples were added to the 96-well plate. Each well was supplemented with PBS to 20 μL, and then 200 μL of BCA working solution (prepared according to the kit) was added respectively and mixed evenly. The plate was placed at 60° C. for 10 min, and then the absorbance at 562 nm was detected. After the reading was recorded, a standard curve was plotted using concentration gradients of the standards, and the absorbance of the samples was substituted to calculate the protein concentration of the samples.
(§4) • 2.1 Protein denaturation: RIPA protein buffer (purchased from Solarbio, Cat. No. R0010) and 5× Loading Buffer (SDS, glycerin, bromophenol blue, TRIS) (purchased from Solarbio, Cat. No. P1040) were added, and the protein samples were denatured at 100° C. for 5 min. • 2.2 Sample loading and electrophoresis: 10% precast gel and the corresponding electrophoresis buffer were used. The same mass of protein sample and protein ladder (purchased from thermo, Cat. No. 26617) were loaded into each well, and electrophoresis at 200 V was performed for 30 min. • 2.3 […]: The gel was excised to remove the excess part. Transferring to PVDF membrane was performed by the wet transfer method (before use, it was necessary to activate the PVDF membrane with methanol for 1 min) at 300 mA for 2 h, during which a lot of heat was generated, and thus cooling with an ice box was required. • 2.4 Blocking: After the transferring, the PVDF membrane was placed in 5% skim milk and blocked with shaking at room temperature for 1 h. • 2.5 Incubating with primary antibody: The PVDF membrane was cut according to the molecular weight indicated on the marker and placed in c-myc (purchased from abcam, Cat. No. ab32072), or GSPT1 (purchased from abcam, Cat. No. ab234433), or CK1α (purchased from abcam, Cat. No. ab206652), or IKZF2 (purchased from proteintech, Cat. No. 13554-1-AP), and GAPDH (purchased from CST, Cat. No. #97166) primary antibodies. The antibodies were diluted with TBST buffer (a solution prepared from TRIS, KCL and NaCl and adjusted to pH 7.4 with hydrochloric acid, and Tween 20 was added) at a ratio of 1:1000, and blocked overnight on a shaker at 4° C. • 2.6 Incubating with secondary antibody: The PVDF membrane incubated with the primary antibody was washed with TBST for 3 times, each time for 10 min. After washing, the membrane was placed in the secondary antibody of the corresponding species, and incubated at room temperature in a shaker for 2 h. • 2.7 Washing membrane and exposure: After incubated with the secondary antibodies, the membrane was washed 3 times with TBST on a shaker, 10 minutes each time. […]

GSPT1 protein = molecular target: T2, GSPT1 protein (Homo sapiens, UniProt P15170); assay: GSPT1 protein degradation in HL60 cells (Western blot); conditions: for remaining GSPT1 protein at 0.01 µM: HL-60, compound at 10 nM, 24 h, gray value relative to Ctrl (DMSO), read-out: Remaining amount of GSPT1 protein (@10 nM/Ctrl)
T2 construct: degradation of myc and GSPT1 proteins in HL60 cells; endogenous in cells; host or cells: HL60
T2 sequence (P15170 whole entry): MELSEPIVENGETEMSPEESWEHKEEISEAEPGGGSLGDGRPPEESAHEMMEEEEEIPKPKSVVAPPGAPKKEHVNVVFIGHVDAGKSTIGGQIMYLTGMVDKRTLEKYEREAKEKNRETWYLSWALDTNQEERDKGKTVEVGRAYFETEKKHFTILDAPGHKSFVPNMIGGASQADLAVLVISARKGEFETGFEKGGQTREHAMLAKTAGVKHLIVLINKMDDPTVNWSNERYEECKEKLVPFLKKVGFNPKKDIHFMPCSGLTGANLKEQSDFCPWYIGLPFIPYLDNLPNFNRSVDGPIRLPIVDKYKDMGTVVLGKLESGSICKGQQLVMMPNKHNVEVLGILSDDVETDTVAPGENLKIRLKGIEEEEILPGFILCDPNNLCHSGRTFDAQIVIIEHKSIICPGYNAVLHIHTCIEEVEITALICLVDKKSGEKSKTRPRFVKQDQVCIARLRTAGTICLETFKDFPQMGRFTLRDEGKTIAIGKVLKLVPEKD
Description: as §1, §2, §3, §4

HL60 cells = assay: Anti-proliferation on HL60 cells (CellTiter-Glo, 3 days); conditions: Homo sapiens, HL-60, 72 h, 3 days incubation, CTG luminescence, IC50 by XLfit, read-out: HL60 cells Proliferation inhibitory activity
Outline: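 Log-phase cells were plated at 20000 cells/well and treated with compound dilutions in RPMI-1640 for 3 days, with 0.1% DMSO controls. Proliferation was read by CellTiter-Glo luminescence. IC50 was fitted from the inhibition rates.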

T1 sequence (P01106 whole entry): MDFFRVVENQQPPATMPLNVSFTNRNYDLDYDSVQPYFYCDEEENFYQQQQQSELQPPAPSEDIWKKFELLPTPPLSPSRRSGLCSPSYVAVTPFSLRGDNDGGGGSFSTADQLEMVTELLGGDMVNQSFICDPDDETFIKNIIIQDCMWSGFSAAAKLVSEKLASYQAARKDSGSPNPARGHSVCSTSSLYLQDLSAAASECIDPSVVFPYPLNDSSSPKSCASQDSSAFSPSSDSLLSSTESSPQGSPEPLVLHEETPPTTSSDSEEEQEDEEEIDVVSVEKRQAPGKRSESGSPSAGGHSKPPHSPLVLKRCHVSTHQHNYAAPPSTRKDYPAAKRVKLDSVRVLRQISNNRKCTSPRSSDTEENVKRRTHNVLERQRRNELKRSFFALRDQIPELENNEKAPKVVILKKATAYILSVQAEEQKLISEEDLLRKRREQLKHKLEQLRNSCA

Row | Compound | remaining activity at 0.01 µM (c-Myc protein) [%] | remaining GSPT1 protein at 0.01 µM (GSPT1 protein) [%] | IC50 (HL60 cells) [nM] | Degradation of GSPT1 protein in HL60 cells at 100 nM (FIG. 3, in words) (GSPT1 protein) | Degradation of c-Myc protein in HL60 cells at 300 nM (FIG. 2, FIG. 3, in words) (c-Myc protein) | Degradation of GSPT1 protein in HL60 cells at 300 nM (FIG. 2, FIG. 3, in words) (GSPT1 protein)
1 | Cc1cccc(-c2cnc(N3CCC(CNCc4ccc5c(c4)CN(C4CCC(=O)NC4=O)C5=O)CC3)nc2)c1 (centres unmarked) [Compound A68] | 0 | 0 | < 0.2 | – | – | –
2 | O=C1CCC(N2Cc3cc(CNC(=O)C4CCN(c5ncc(-c6cccc(Cl)c6)cn5)CC4)ccc3C2=O)C(=O)N1 (centres unmarked) [Compound A65] | 0 | 14 | < 0.2 | – | – | –
3 | O=C1CCC(N2Cc3cc(CNCC4CCN(c5ncc(-c6cccc(Cl)c6)cc5C(F)(F)F)CC4)c(F)cc3C2=O)C(=O)N1 (centres unmarked) [Compound A140] | 95 | 47 | 17.1 | – | – | –
4 | O=C1CCC(N2Cc3cc(CCCC4CCN(c5ncc(-c6cccc(Cl)c6)cc5C(F)(F)F)CC4)ccc3C2=O)C(=O)N1 (centres unmarked) [Compound A134] | – | – | 223 | significantly degrade GSPT1 protein | simultaneously degrade both GSPT1 and c-Myc proteins | simultaneously degrade both GSPT1 and c-Myc proteins
5 | O=C1CCC(N2Cc3cc(CNCC4CCN(c5ncc(-c6cccc(Cl)c6)cc5F)CC4F)ccc3C2=O)C(=O)N1 (centres unmarked) [Compound A87] | 11 | 0 | 0.6 | – | – | –
6 | Cc1cccc(-c2cnc(N3CCC(F)(CNCc4ccc5c(c4)CN(C4CCC(=O)NC4=O)C5=O)CC3)c(C(F)(F)F)c2)c1 (centres unmarked) [Compound A85] | 8 | 3 | 1 | – | – | –
7 | O=C1CCC(N2Cc3cc(CNCC4CCN(c5ncc(-c6cccc7ccccc67)s5)CC4)ccc3C2=O)C(=O)N1 (centres unmarked) [Compound A61] | 0 | 4 | 0.3 | – | – | –
8 | O=C1CCC(N2Cc3cc(CNCC4CCN(c5ncc(-c6cccc(F)c6)cn5)CC4)ccc3C2=O)C(=O)N1 (centres unmarked) [Compound A67] | 19 | 25 | 2 | – | – | –
9 | O=C1CCC(N2Cc3cc(NCCC4CCN(c5ncc(-c6cccc(Cl)c6)cc5C(F)(F)F)CC4)ccc3C2=O)C(=O)N1 (centres unmarked) [Compound A131] | – | – | 35.8 | significantly degrade GSPT1 protein | simultaneously degrade both GSPT1 and c-Myc proteins | simultaneously degrade both GSPT1 and c-Myc proteins
10 | COc1cccc(-c2cnc(N3CCC(CNCc4ccc5c(c4)CN(C4CCC(=O)NC4=O)C5=O)CC3)c(C(F)(F)F)c2)c1 (centres unmarked) [Compound A95] | 0 | 0 | < 0.2 | – | – | –
11 | O=C1CCC(N2Cc3cc(CNCC4CCN(c5cnc(-c6cccc(Cl)c6)cn5)CC4)ccc3C2=O)C(=O)N1 (centres unmarked) [Compound A102] | 0 | 0 | 0.5 | – | – | –
12 | CC(NCc1ccc2c(c1)CN(C1CCC(=O)NC1=O)C2=O)C1CCN(c2ncc(-c3cccc(Cl)c3)cc2F)CC1 (centres unmarked) [Compound A105] | 333 | 7 | 55 | – | – | –
13 | O=C1CCC(N2Cc3cc(CNCC4CCN(c5ccc(-c6cccc(Cl)c6)cn5)CC4)ccc3C2=O)C(=O)N1 (centres unmarked) [Compound A70] | 216 | 23 | < 0.2 | – | – | –
14 | O=C1CCC(N2Cc3cc(CNCC4CCN(c5cnc(-c6cccc7ccccc67)nc5)CC4)ccc3C2=O)C(=O)N1 (centres unmarked) [Compound A64] | 0 | 5 | 10 | – | – | –
15 | N#Cc1cc(-c2cccc(Cl)c2)ccc1N1CCC(CNCc2ccc3c(c2)CN(C2CCC(=O)NC2=O)C3=O)CC1 (centres unmarked) [Compound A103] | 6 | 0 | 1.5 | – | – | –

More lines, main results first:

Row | remaining activity at 0.01 µM (c-Myc protein) [%] | remaining GSPT1 protein at 0.01 µM (GSPT1 protein) [%] | IC50 (HL60 cells) [nM] | Degradation of GSPT1 protein in HL60 cells at 100 nM (FIG. 3, in words) (GSPT1 protein) | Compound | Degradation of c-Myc protein in HL60 cells at 300 nM (FIG. 2, FIG. 3, in words) (c-Myc protein) | Degradation of GSPT1 protein in HL60 cells at 300 nM (FIG. 2, FIG. 3, in words) (GSPT1 protein)
16 | 2 | 29 | < 0.2 | – | O=C1CCC(N2Cc3cc(CNCC4CCN(c5ncc(-c6cccc(F)c6)cc5F)CC4)ccc3C2=O)C(=O)N1 (centres unmarked) [Compound A108] | – | –
17 | 104 | 10 | 1.1 | – | O=C1CCC(N2Cc3cc(CNCC4CCN(c5ncc(-c6ccc(Cl)cc6)cc5F)CC4)ccc3C2=O)C(=O)N1 (centres unmarked) [Compound A74] | – | –
18 | 50 | 2 | < 0.2 | – | COc1cc(-c2cccc(Cl)c2)cnc1N1CCC(CNCc2ccc3c(c2)CN(C2CCC(=O)NC2=O)C3=O)CC1 (centres unmarked) [Compound A77] | – | –
19 | 0 | 0 | < 0.2 | – | COc1cccc(-c2cnc(N3CCC(CNCc4ccc5c(c4)CN(C4CCC(=O)NC4=O)C5=O)CC3)c(F)c2)c1 (centres unmarked) [Compound A112] | – | –
20 | 12 | 0 | 1.6 | – | O=C1CCC(N2Cc3cc(CNCC4CCN(c5ncc(-c6cccc(F)c6)cc5C(F)(F)F)CC4)ccc3C2=O)C(=O)N1 (centres unmarked) [Compound A93] | – | –
21 | 157 | 3 | 1 | – | N#Cc1cc(-c2cccc(Cl)c2)cnc1N1CCC(CNCc2ccc3c(c2)CN(C2CCC(=O)NC2=O)C3=O)CC1 (centres unmarked) [Compound A98] | – | –
22 | 6 | 2 | 1.3 | – | N#Cc1cccc(-c2cnc(N3CCC(CNCc4ccc5c(c4)CN(C4CCC(=O)NC4=O)C5=O)CC3)c(F)c2)c1 (centres unmarked) [Compound A111] | – | –
23 | 0 | 0 | 0.1 | – | Cc1cccc(-c2cnc(N3CCC(CNCc4ccc5c(c4)CN(C4CCC(=O)NC4=O)C5=O)CC3)c(C(F)(F)F)c2)c1 (centres unmarked) [Compound A94] | – | –
24 | 0 | 0 | < 0.2 | – | O=C1CCC(N2Cc3cc(CNCC4CCN(c5ncc(-c6cccc(Cl)c6)cc5Cl)CC4)ccc3C2=O)C(=O)N1 (centres unmarked) [Compound A75] | – | –
25 | 46 | 1 | 9.1 | – | O=C1CCC(N2Cc3cc(CNCC4CCN(c5ncc(-c6ccccc6F)cc5F)CC4)ccc3C2=O)C(=O)N1 (centres unmarked) [Compound A107] | – | –
26 | 16 | 0 | 63 | – | O=C1CCC(N2Cc3cc(CNCC4CCN(c5ncc(-c6ccccc6Cl)cc5F)CC4)ccc3C2=O)C(=O)N1 (centres unmarked) [Compound A72] | – | –
27 | 30 | 53 | 22 | – | N#Cc1cccc(-c2cnc(N3CCC(CNCc4ccc5c(c4)CN(C4CCC(=O)NC4=O)C5=O)CC3)nc2)c1 (centres unmarked) [Compound A69] | – | –
28 | 3 | 0 | < 0.2 | – | O=C1CCC(N2Cc3cc(CNCC4CCN(c5ncc(-c6cccc(C(F)(F)F)c6)cc5F)CC4)ccc3C2=O)C(=O)N1 (centres unmarked) [Compound A110] | – | –
